Data: patent publication US9255085B2, “Carboxamide compounds and methods for using the same” (Rigel Pharmaceuticals, Inc., priority 2008, dated 2016)
One block for each compound: values may come before it.

Molecular target: AMPK
Experiment: AMPK activation, enzyme-linked immunosorbent assay
Format: biochemical
Conditions: ELISA
Experimental: Compounds 1-13 were assayed for their ability to activate AMPK using an enzyme-linked immunosorbent assay.
Compounds 14-16 were assayed for their ability to activate AMPK using an enzyme-linked immunosorbent assay.
Compounds 17-18 were assayed for their ability to activate AMPK using an enzyme-linked immunosorbent assay.
Compounds 19-22 were assayed for their ability to activate AMPK using an enzyme-linked immunosorbent assay.
Compounds 23-26 were assayed for their ability to activate AMPK using an enzyme-linked immunosorbent assay.
Compounds 27-33 were assayed for their ability to activate AMPK using an enzyme-linked immunosorbent assay.
Compounds 34-42 were assayed for their ability to activate AMPK using an enzyme-linked immunosorbent assay.

EC50 (Table 2): < 100 nM
Structure (SMILES): CC(C)(C)OC(=O)N1CCC(NC(=O)c2nc3ccc(OC4CCN(c5ccc(C(F)(F)F)cc5)CC4)cc3o2)CC1 [Compound 1, tert-butyl 4-(6-(1-(4-(trifluoromethyl)phenyl)piperidin-4-yloxy)benzo[d]oxazole-2-carboxamido)piperidine-1-carboxylate]

EC50 (Table 2): < 100 nM
Structure (SMILES): O=C(NC1CCN(C(=O)c2ccc(F)cc2)CC1)c1nc2ccc(OC3CCN(c4ccc(C(F)(F)F)cc4)CC3)cc2o1 [Compound 4, N-(1-(4-Fluorobenzoyl)piperidin-4-yl)-6-(1-(4-(trifluoromethyl)phenyl)piperidin-4-yloxy)benzo[d]oxazole-2-carboxamide]

EC50 (Table 2): < 100 nM
Structure (SMILES): N#Cc1ccc(C(=O)N2CCC(NC(=O)c3nc4ccc(OC5CCN(c6ccc(C(F)(F)F)cc6)CC5)cc4o3)CC2)cc1 [Compound 6, N-(1-(4-Cyanobenzoyl)piperidin-4-yl)-6-(1-(4-(trifluoromethyl)phenyl)piperidin-4-yloxy)benzo[d]oxazole-2-carboxamide]

EC50 (Table 3): 1000 to 10000 nM
Structure (SMILES): CC(C)(C)OC(=O)N1CCC(NC(=O)c2nc3ccc(OC4CCN(c5ccc(C(F)(F)F)cc5)CC4)cc3s2)CC1 [Compound 14, tert-butyl 4-(6-(1-(4-(trifluoromethyl)phenyl)piperidin-4-yloxy)benzo[d]thiazole-2-carboxamido)piperidine-1-carboxylate]

EC50 (Table 4): < 100 nM
Structure (SMILES): O=C(NC1CCN(Cc2ccncc2)CC1)c1cn2ccc(OC3CCN(c4ccc(C(F)(F)F)cc4)CC3)cc2n1 [Compound 17, N-(1-(Pyridin-4-ylmethyl)piperidin-4-yl)-7-(1-(4-(trifluoromethyl)phenyl)piperidin-4-yloxy)imidazo[1,2-a]pyridine-2-carboxamide]

EC50 (Table 5): 1000 to 10000 nM
Structure (SMILES): CC(C)(C)OC(=O)N1CCC(NC(=O)c2cnc(OC3CCN(c4ccc(C(F)(F)F)cc4)CC3)cn2)CC1 [Compound 19, tert-butyl 4-(5-(1-(4-(trifluoromethyl)phenyl)piperidin-4-yloxy)pyrazine-2-carboxamido)piperidine-1-carboxylate]

EC50 (Table 5): > 100000 nM
Structure (SMILES): O=C(NC1CCNCC1)c1cnc(OC2CCN(c3ccc(C(F)(F)F)cc3)CC2)cn1 [Compound 20, N-(piperidin-4-yl)-5-(1-(4-(trifluoromethyl)phenyl)piperidin-4-yloxy)pyrazine-2-carboxamide]

EC50 (Table 5): < 100 nM
Structure (SMILES): O=C(NC1CCN(Cc2ccncc2)CC1)c1cnc(OC2CCN(c3ccc(C(F)(F)F)cc3)CC2)cn1 [Compound 21, N-(1-(Pyridin-4-ylmethyl)piperidin-4-yl)-5-(1-(4-(trifluoromethyl)phenyl)piperidin-4-yloxy)pyrazine-2-carboxamide]

EC50 (Table 5): < 100 nM
Structure (SMILES): N#Cc1ccc(CN2CCC(NC(=O)c3cnc(OC4CCN(c5ccc(C(F)(F)F)cc5)CC4)cn3)CC2)cc1 [Compound 22, N-(1-(4-Cyanobenzyl)piperidin-4-yl)-5-(1-(4-(trifluoromethyl)phenyl)piperidin-4-yloxy)pyrazine-2-carboxamide]

EC50 (Table 6): < 100 nM
Structure (SMILES): N#Cc1ccc(CN2CCC(NC(=O)c3cnc(OC4CCN(c5ccc(C(F)(F)F)cc5)CC4)s3)CC2)cc1 [Compound 23, N-(1-(4-cyanobenzyl)piperidin-4-yl)-2-(1-(4-(trifluoromethyl)phenyl)piperidin-4-yloxy)thiazole-5-carboxamide]

EC50 (Table 6): 1000 to 10000 nM
Structure (SMILES): CC(C)(C)OC(=O)N1CCC(Oc2ncc(C(=O)NC3CCN(Cc4ccc(C#N)cc4)CC3)s2)CC1 [Compound 26, tert-Butyl 4-(5-(1-(4-cyanobenzyl)piperidin-4-ylcarbamoyl)thiazol-2-yloxy)piperidine-1-carboxylate]

Continued, compound first:

Structure (SMILES): N#Cc1ccc(CN2CCC(NC(=O)c3nc4ccc(OC5CCN(c6ccc(C(F)(F)F)cc6)CC5)cc4o3)CC2)cc1 [Compound 2, N-(1-(4-Cyanobenzyl)piperidin-4-yl)-6-(1-(4-(trifluoromethyl)phenyl)piperidin-4-yloxy)benzo[d]oxazole-2-carboxamide]
EC50 (Table 2): < 100 nM

Structure (SMILES): O=C(NC1CCN(Cc2ccncc2)CC1)c1nc2ccc(OC3CCN(c4ccc(C(F)(F)F)cc4)CC3)cc2o1 [Compound 3, N-(1-(Pyridin-4-ylmethyl)piperidin-4-yl)-6-(1-(4-(trifluoromethyl)phenyl)piperidin-4-yloxy)benzo[d]oxazole-2-carboxamide]
EC50 (Table 2): < 100 nM

Structure (SMILES): O=C(NC1CCNCC1)c1nc2ccc(OC3CCN(c4ccc(C(F)(F)F)cc4)CC3)cc2o1 [Compound 5, N-(Piperidin-4-yl)-6-(1-(4-(trifluoromethyl)phenyl)piperidin-4-yloxy)benzo[d]oxazole-2-carboxamide]
EC50 (Table 2): 10000 to 100000 nM

Structure (SMILES): O=C(c1nc2ccc(OC3CCN(c4ccc(C(F)(F)F)cc4)CC3)cc2o1)N1CC2CC1CN2Cc1ccncc1 (stereo not drawn) [Compound 8, (5-(pyridin-4-ylmethyl)-2,5-diazabicyclo[2.2.1]heptan-2-yl)(6-(1-(4-(trifluoromethyl)phenyl)piperidin-4-yloxy)benzo[d]oxazol-2-yl)methanone]
EC50 (Table 2): 100 to 1000 nM

Structure (SMILES): NC(=O)c1ccc(CN2CC3CC2CN3C(=O)c2nc3ccc(OC4CCN(c5ccc(C(F)(F)F)cc5)CC4)cc3o2)cc1 (stereo not drawn) [Compound 9, 4-((5-(6-(1-(4-(Trifluoromethyl)phenyl)piperidin-4-yloxy)benzo[d]oxazole-2-carbonyl)-2,5-diazabicyclo[2.2.1]heptan-2-yl)methyl)benzamide]
EC50 (Table 2): 100 to 1000 nM

Structure (SMILES): N#Cc1ccc(CN2CC3CC2CN3C(=O)c2nc3ccc(OC4CCN(c5ccc(C(F)(F)F)cc5)CC4)cc3o2)cc1 (stereo not drawn) [Compound 10, 4-((5-(6-(1-(4-(Trifluoromethyl)phenyl)piperidin-4-yloxy)benzo[d]oxazole-2-carbonyl)-2,5-diazabicyclo[2.2.1]heptan-2-yl)methyl)benzonitrile]
EC50 (Table 2): 100 to 1000 nM

Structure (SMILES): O=C(c1ccncc1)N1CC2CC1CN2C(=O)c1nc2ccc(OC3CCN(c4ccc(C(F)(F)F)cc4)CC3)cc2o1 (stereo not drawn) [Compound 11, (5-Isonicotinoyl-2,5-diazabicyclo[2.2.1]heptan-2-yl)(6-(1-(4-(trifluoromethyl)phenyl)piperidin-4-yloxy)benzo[d]oxazol-2-yl)methanone]
EC50 (Table 2): 100 to 1000 nM

Structure (SMILES): N#Cc1ccc(C(=O)N2CC3CC2CN3C(=O)c2nc3ccc(OC4CCN(c5ccc(C(F)(F)F)cc5)CC4)cc3o2)cc1 (stereo not drawn) [Compound 12, 4-(5-(6-(1-(4-(trifluoromethyl)phenyl)piperidin-4-yloxy)benzo[d]oxazole-2-carbonyl)-2,5-diazabicyclo[2.2.1]heptane-2-carbonyl)benzonitrile]
EC50 (Table 2): < 100 nM

Structure (SMILES): O=C(c1ccc(F)cc1)N1CC2CC1CN2C(=O)c1nc2ccc(OC3CCN(c4ccc(C(F)(F)F)cc4)CC3)cc2o1 (stereo not drawn) [Compound 13, (5-(4-fluorobenzoyl)-2,5-diazabicyclo[2.2.1]heptan-2-yl)(6-(1-(4-(trifluoromethyl)phenyl)piperidin-4-yloxy)benzo[d]oxazol-2-yl)methanone]
EC50 (Table 2): < 100 nM

Structure (SMILES): O=C(NC1CCN(Cc2ccncc2)CC1)c1nc2ccc(OC3CCN(c4ccc(C(F)(F)F)cc4)CC3)cc2s1 [Compound 15, N-(1-(Pyridin-4-ylmethyl)piperidin-4-yl)-6-(1-(4-(trifluoromethyl)phenyl)piperidin-4-yloxy)benzo[d]thiazole-2-carboxamide]
EC50 (Table 3): 100 to 1000 nM

Structure (SMILES): N#Cc1ccc(CN2CCC(NC(=O)c3nc4ccc(OC5CCN(c6ccc(C(F)(F)F)cc6)CC5)cc4s3)CC2)cc1 [Compound 16, N-(1-(4-Cyanobenzyl)piperidin-4-yl)-6-(1-(4-(trifluoromethyl)phenyl)piperidin-4-yloxy)benzo[d]thiazole-2-carboxamide]
EC50 (Table 3): 100 to 1000 nM

Structure (SMILES): N#Cc1ccc(CN2CCC(NC(=O)c3cn4ccc(OC5CCN(c6ccc(C(F)(F)F)cc6)CC5)cc4n3)CC2)cc1 [Compound 18, N-(1-(4-Cyanobenzyl)piperidin-4-yl)-7-(1-(4-(trifluoromethyl)phenyl)piperidin-4-yloxy)imidazo[1,2-a]pyridine-2-carboxamide]
EC50 (Table 4): < 100 nM

Structure (SMILES): N#Cc1ccc(CN2CCC(NC(=O)c3cnc(OC4CCN(c5ccc(C#N)cc5)CC4)s3)CC2)cc1 [Compound 24, N-(1-(4-Cyanobenzyl)piperidin-4-yl)-2-(1-(4-cyanophenyl)piperidin-4-yloxy)thiazole-5-carboxamide]
EC50 (Table 6): < 100 nM

Structure (SMILES): N#Cc1ccc(CN2CCC(NC(=O)c3cnc(OC4CCN(Cc5ccc(C(F)(F)F)cc5)CC4)s3)CC2)cc1 [Compound 25, N-(1-(4-Cyanobenzyl)piperidin-4-yl)-2-(1-(4-(trifluoromethyl)benzyl)piperidin-4-yloxy)thiazole-5-carboxamide]
EC50 (Table 6): < 100 nM

Structure (SMILES): N#Cc1ccc(CN2CCC(NC(=O)c3ccc(C(=O)N4CCN(Cc5ccc(Cl)cc5)CC4)cc3)CC2)cc1 [Compound 28, 4-(4-(4-Chlorobenzyl)piperazine-1-carbonyl)-N-(1-(4-cyanobenzyl)piperidin-4-yl)benzamide]
EC50 (Table 7): < 100 nM

Structure (SMILES): N#Cc1ccc(CN2CCC(NC(=O)c3ccc(C(=O)N4CCN(c5ccc(Cl)cc5)CC4)cc3)CC2)cc1 [Compound 29, 4-(4-(4-Chlorophenyl)piperazine-1-carbonyl)-N-(1-(4-cyanobenzyl)piperidin-4-yl)benzamide]
EC50 (Table 7): 10000 to 100000 nM

Structure (SMILES): N#Cc1ccc(CN2CCC(NC(=O)c3ccc(C(=O)N4CCN(c5ccc(C(F)(F)F)cn5)CC4)cc3)CC2)cc1 [Compound 30, N-(1-(4-Cyanobenzyl)piperidin-4-yl)-4-(4-(5-(trifluoromethyl)pyridin-2-yl)piperazine-1-carbonyl)benzamide]
EC50 (Table 7): < 100 nM

Structure (SMILES): N#Cc1ccc(CN2CCC(NC(=O)c3ccc(C(=O)NC4CCN(Cc5ccc(C(F)(F)F)cc5)CC4)cc3)CC2)cc1 [Compound 31, N^1-(1-(4-Cyanobenzyl)piperidin-4-yl)-N^4-(1-(4-(trifluoromethyl)benzyl)piperidin-4-yl)terephthalamide]
EC50 (Table 7): < 100 nM

Structure (SMILES): N#Cc1ccc(CN2CCC(NC(=O)c3ccc(C(=O)NC4CCN(c5ccccc5)CC4)cc3)CC2)cc1 [Compound 32, N^1-(1-(4-Cyanobenzyl)piperidin-4-yl)-N^4-(1-phenylpiperidin-4-yl)terephthalamide]
EC50 (Table 7): 10000 to 100000 nM
